Source: patent publication US9422293B2 (priority 2006, dated 2016)
Where a name gives a salt, the structure may show the parent alone.

Target: rat TRPV1 (Rattus norvegicus (Rat), UniProt O35433)
Settings: read-out: Rat IC50
Experimental: Biological Testing: Functional Assay: Block of Capsaicin-Induced Ca^2+ Influx A. Human Assay
Cells were passaged frequently, every 3-5 days, to avoid overgrowth, depletion of essential medium components, or acidic medium exposure. Cells were passaged using a brief wash in 0.05% trypsin with 1 mM EDTA, followed by dissociation in divalent-free phosphate-buffered saline (Hyclone #SH30028.02). […] The assay buffer was composed of 130 mM NaCl, 2 mM KCl, 2 mM MgCl2, 10 mM HEPES, 5 mM glucose, and either 2 mM or 20 μM CaCl2. On the day of the experiment, the culture medium was replaced with 2 mM calcium assay buffer using an automated plate washer (ELx405; Biotek, VT). […] After loading the cells, the dye solution was replaced with 50 μL/well of 20 μM calcium assay buffer using the ELx405 plate washer. Test compounds (50 μL/well) were added to the plate and incubated for 30 min. […] The IC50 values were determined. […] The contents of the wells were mixed 3 times (40 μL mix volume) immediately after the additions were made. Concentration dependence of block was determined by exposing each well of cells in duplicate rows of a 96 well plate to a serial dilution of test compound. The concentration series usually started at 10 μM with a three-fold serial decrement in concentration. The magnitude of the capsaicin response was determined by measuring the change in fluo3 fluorescence before and 100 seconds after the addition of the agonist. Data were analyzed using a non-linear regression program (Origin; OriginLab, MA). IC50 values shown are the average (mean) of the results obtained.
The assay was performed as described above, using HEK293 cells transfected with rat TRPV1 (rTRPV1/HEK293). […] IC50 values shown are the average (mean) of the results obtained.

Sequence of rat TRPV1 (O35433 whole entry): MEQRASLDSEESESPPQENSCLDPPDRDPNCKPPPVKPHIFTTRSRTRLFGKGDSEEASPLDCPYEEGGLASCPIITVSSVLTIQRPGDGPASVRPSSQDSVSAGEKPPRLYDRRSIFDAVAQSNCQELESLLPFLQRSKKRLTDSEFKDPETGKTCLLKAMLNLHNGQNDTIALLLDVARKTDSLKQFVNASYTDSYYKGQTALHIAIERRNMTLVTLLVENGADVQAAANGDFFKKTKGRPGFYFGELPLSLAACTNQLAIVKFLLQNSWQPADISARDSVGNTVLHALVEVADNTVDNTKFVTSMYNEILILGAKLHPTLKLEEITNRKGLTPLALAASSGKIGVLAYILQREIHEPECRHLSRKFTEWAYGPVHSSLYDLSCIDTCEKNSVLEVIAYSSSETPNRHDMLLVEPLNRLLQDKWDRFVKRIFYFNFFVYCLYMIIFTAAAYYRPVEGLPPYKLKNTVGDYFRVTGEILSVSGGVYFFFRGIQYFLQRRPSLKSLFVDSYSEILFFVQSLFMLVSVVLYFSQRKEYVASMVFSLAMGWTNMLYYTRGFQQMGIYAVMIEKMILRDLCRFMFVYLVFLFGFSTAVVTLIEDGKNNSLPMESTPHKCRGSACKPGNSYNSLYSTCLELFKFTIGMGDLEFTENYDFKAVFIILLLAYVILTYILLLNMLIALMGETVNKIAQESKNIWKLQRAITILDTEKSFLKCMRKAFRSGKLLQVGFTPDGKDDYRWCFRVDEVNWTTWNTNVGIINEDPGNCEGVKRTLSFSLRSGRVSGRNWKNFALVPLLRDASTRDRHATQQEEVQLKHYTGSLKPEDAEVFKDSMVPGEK

SMILES | IC50
CN(C)c1nc2c(c(Nc3ccc(C(F)(F)F)cc3)n1)CCN(c1ncccc1C(F)(F)F)CC2 [Example 49, N^2,N^2-Dimethyl-N^4-(4-trifluoromethyl-phenyl)-7-(3-trifluoromethyl-pyridin-2-yl)-6,7,8,9-tetrahydro-5H-pyrimido[4,5-d]azepine-2,4-diamine] | 240 nM
CC(C)c1nc2c(c(Nc3ccc([N+](=O)[O-])cc3)n1)CCN(c1ncccc1C(F)(F)F)CC2 [Example 136, 2-(1-Methylethyl)-N-(4-nitrophenyl)-7-[3-(trifluoromethyl)pyridin-2-yl]-6,7,8,9-tetrahydro-5H-pyrimido[4,5-d]azepin-4-amine] | 110 nM
CC(C)c1nc2c(c(Nc3ccc(C(F)(F)F)cc3)n1)CCN(c1ncccc1S(C)(=O)=O)CC2 [Example 36, [2-Isopropyl-7-(3-methanesulfonyl-pyridin-2-yl)-6,7,8,9-tetrahydro-5H-pyrimido[4,5-d]azepin-4-yl]-(4-trifluoromethyl-phenyl)-amine] | 370 nM
FC(F)(F)c1ccc(Nc2nc(-c3ccccc3)nc3c2CCN(c2ncccc2C(F)(F)F)CC3)cc1 [Example 7, [2-Phenyl-7-(3-trifluoromethyl-pyridin-2-yl)-6,7,8,9-tetrahydro-5H-pyrimido[4,5-d]azepin-4-yl]-(4-trifluoromethyl-phenyl)-amine] | 140 nM
FC(F)(F)c1ccc(Nc2nc(-c3ccccc3)nc3c2CCN(c2ncccc2C(F)(F)F)CC3)nc1 [Example 22, [2-Phenyl-7-(3-trifluoromethyl-pyridin-2-yl)-6,7,8,9-tetrahydro-5H-pyrimido[4,5-d]azepin-4-yl]-(5-trifluoromethyl-pyridin-2-yl)-amine] | 130 nM
CCOc1nc2c(c(Nc3ccc(C(F)(F)F)cc3)n1)CCN(c1ncccc1C(F)(F)F)CC2 [Example 345, 2-(Ethyloxy)-N-[4-(trifluoromethyl)phenyl]-7-[3-(trifluoromethyl)pyridin-2-yl]-6,7,8,9-tetrahydro-5H-pyrimido[4,5-d]azepin-4-amine trifluoroacetic acid salt] | 190 nM
COC(=O)c1cnc(N2CCc3nc(SC)nc(Nc4ccc(C(F)(F)F)cc4)c3CC2)c(Cl)c1 [Example 303, Methyl 5-chloro-6-[2-(methylsulfanyl)-4-{[4-(trifluoromethyl)phenyl]amino}-5,6,8,9-tetrahydro-7H-pyrimido[4,5-d]azepin-7-yl]pyridine-3-carboxylate] | > 6670 nM
FC(F)(F)c1ccc(Nc2nc(OC3CCCC3)nc3c2CCN(c2ncccc2C(F)(F)F)CC3)cc1 [Example 337, 2-(Cyclopentyloxy)-N-[4-(trifluoromethyl)phenyl]-7-[3-(trifluoromethyl)pyridin-2-yl]-6,7,8,9-tetrahydro-5H-pyrimido[4,5-d]azepin-4-amine] | 170 nM
CC(Oc1nc2c(c(Nc3ccc(S(=O)(=O)C(F)(F)F)cc3)n1)CCN(c1ncccc1C(F)(F)F)CC2)C1CCCCC1 (stereo not shown) [Example 318, 2-[(1-Cyclohexylethyl)oxy]-7-[3-(trifluoromethyl)pyridin-2-yl]-N-{4-[(trifluoromethyl)sulfonyl]phenyl}-6,7,8,9-tetrahydro-5H-pyrimido[4,5-d]azepin-4-amine] | > 6670 nM
FC(F)(F)c1ccc(Nc2nc(Sc3ccccc3)nc3c2CCN(c2ncccc2C(F)(F)F)CC3)cc1 [Example 349, 2-(Phenylsulfanyl)-N-[4-(trifluoromethyl)phenyl]-7-[3-(trifluoromethyl)pyridin-2-yl]-6,7,8,9-tetrahydro-5H-pyrimido[4,5-d]azepin-4-amine] | 2350 nM
CC(C)c1nc2c(c(Nc3ccc(C(C)(C)C#N)cc3)n1)CCN(c1ncccc1C(F)(F)F)CC2 [Example 129, 2-Methyl-2-[4-({2-(1-methylethyl)-7-[3-(trifluoromethyl)pyridin-2-yl]-6,7,8,9-tetrahydro-5H-pyrimido[4,5-d]azepin-4-yl}amino)phenyl]propanenitrile] | 230 nM
CC(C)c1nc2c(c(Nc3ccc(N)cc3)n1)CCN(c1ncccc1C(F)(F)F)CC2 [Example 198, N-{2-(1-Methylethyl)-7-[3-(trifluoromethyl)pyridin-2-yl]-6,7,8,9-tetrahydro-5H-pyrimido[4,5-d]azepin-4-yl}benzene-1,4-diamine trifluoroacetic acid salt] | 9160 nM
CC(C)(C(=O)O)c1ccc(Nc2nc(N3CCOCC3)nc3c2CCN(c2ncccc2C(F)(F)F)CC3)cc1 [Example 392, 2-Methyl-2-{4-[2-morpholin-4-yl-7-(3-trifluoromethyl-pyridin-2-yl)-6,7,8,9-tetrahydro-5H-pyrimido[4,5-d]azepin-4-ylamino]-phenyl}-propionic acid] | 1540 nM
FC(F)(F)c1ccc(Nc2nc(SC3CCCCC3)nc3c2CCN(c2ncccc2C(F)(F)F)CC3)cc1 [Example 354, 2-(Cyclohexylsulfanyl)-N-[4-(trifluoromethyl)phenyl]-7-[3-(trifluoromethyl)pyridin-2-yl]-6,7,8,9-tetrahydro-5H-pyrimido[4,5-d]azepin-4-amine] | 250 nM
CC(C)c1nc2c(c(Nc3ccc(S(=O)(=O)N4CCCC4)cc3)n1)CCN(c1ncccc1C(F)(F)F)CC2 [Example 152, 2-(1-Methylethyl)-N-[4-(pyrrolidin-1-ylsulfonyl)phenyl]-7-[3-(trifluoromethyl)pyridin-2-yl]-6,7,8,9-tetrahydro-5H-pyrimido[4,5-d]azepin-4-amine] | 550 nM
CC(C)c1nc2c(c(Nc3ccc(C(F)(F)F)nc3)n1)CCN(c1ncccc1S(C)(=O)=O)CC2 [Example 282, 2-(1-Methylethyl)-7-[3-(methylsulfonyl)pyridin-2-yl]-N-[6-(trifluoromethyl)pyridin-3-yl]-6,7,8,9-tetrahydro-5H-pyrimido[4,5-d]azepin-4-amine] | 130 nM
COC(=O)c1ccc(Nc2nc(N3CCCCC3)nc3c2CCN(c2ncccc2C(F)(F)F)CC3)cc1F [Example 385, 2-Fluoro-4-[2-piperidin-1-yl-7-(3-trifluoromethyl-pyridin-2-yl)-6,7,8,9-tetrahydro-5H-pyrimido[4,5-d]azepin-4-ylamino]-benzoic acid methyl ester] | 820 nM
CSc1nc2c(c(Nc3ccc(C(F)(F)F)cn3)n1)CCN(c1ncccc1C(F)(F)F)CC2 [Example 74B, [2-Methylsulfanyl-7-(3-trifluoromethyl-pyridin-2-yl)-6,7,8,9-tetrahydro-5H-pyrimido[4,5-d]azepin-4-yl]-(5-trifluoromethyl-pyridin-2-yl)-amine trifluoroacetic acid salt] | 3900 nM
Cc1cc([N+](=O)[O-])cnc1N1CCc2nc(C(C)C)nc(Nc3ccc(C(F)(F)F)cc3)c2CC1 [Example 87, [2-Isopropyl-7-(3-methyl-5-nitro-pyridin-2-yl)-6,7,8,9-tetrahydro-5H-pyrimido[4,5-d]azepin-4-yl]-(4-trifluoromethyl-phenyl)-amine] | 350 nM
FC(F)(F)c1ccc(Nc2nc(SCc3ccccc3)nc3c2CCN(c2ncccc2C(F)(F)F)CC3)cc1 [Example 353, 2-[(Phenylmethyl)sulfanyl]-N-[4-(trifluoromethyl)phenyl]-7-[3-(trifluoromethyl)pyridin-2-yl]-6,7,8,9-tetrahydro-5H-pyrimido[4,5-d]azepin-4-amine] | 240 nM
COC(=O)C(C)(C)c1ccc(Nc2nc(N3CCCCC3)nc3c2CCN(c2ncccc2C(F)(F)F)CC3)cc1 [Example 175, Methyl 2-methyl-2-[4-({2-piperidin-1-yl-7-[3-(trifluoromethyl)pyridin-2-yl]-6,7,8,9-tetrahydro-5H-pyrimido[4,5-d]azepin-4-yl}amino)phenyl]propanoate] | 80 nM
CC(C)c1nc2c(c(Nc3ccc4c(c3)N(C)CCC4(C)C)n1)CCN(c1ncccc1C(F)(F)F)CC2 [Example 162, [2-Isopropyl-7-(3-trifluoromethyl-pyridin-2-yl)-6,7,8,9-tetrahydro-5H-pyrimido[4,5-d]azepin-4-yl]-(1,4,4-trimethyl-1,2,3,4-tetrahydro-quinolin-7-yl)-amine] | 30 nM
CN(C)S(=O)(=O)c1ccc(Nc2nc(N3CCCCC3)nc3c2CCN(c2ncccc2C(F)(F)F)CC3)cc1 [Example 158, N,N-Dimethyl-4-({2-piperidin-1-yl-7-[3-(trifluoromethyl)pyridin-2-yl]-6,7,8,9-tetrahydro-5H-pyrimido[4,5-d]azepin-4-yl}amino)benzenesulfonamide] | 60 nM
CCS(=O)(=O)c1cccnc1N1CCc2nc(C(C)C)nc(Nc3ccc(C(C)(C)C)cc3)c2CC1 [Example 296, N-[4-(1,1-Dimethylethyl)phenyl]-7-[3-(ethylsulfonyl)pyridin-2-yl]-2-(1-methylethyl)-6,7,8,9-tetrahydro-5H-pyrimido[4,5-d]azepin-4-amine] | 120 nM
NS(=O)(=O)c1cccnc1N1CCc2ncnc(Nc3ccc(C(F)(F)F)cc3)c2CC1 [Example 302, 2-(4-{[4-(Trifluoromethyl)phenyl]amino}-5,6,7,8,9-tetrahydro-7H-pyrimido[4,5-d]azepin-7-yl)pyridine-3-sulfonamide] | 9460 nM
CC(C)c1nc2c(c(Nc3ccc(C(F)(F)F)c(Cl)n3)n1)CCN(c1ncccc1C(F)(F)F)CC2 [Example 188, N-[6-Chloro-5-(trifluoromethyl)pyridin-2-yl]-2-(1-methylethyl)-7-[3-(trifluoromethyl)pyridin-2-yl]-6,7,8,9-tetrahydro-5H-pyrimido[4,5-d]azepin-4-amine hydrochloride salt] | 1590 nM
CC(C)c1nc2c(c(Nc3ccc(C(C)(C)C)c(N)c3)n1)CCN(c1ncccc1C(F)(F)F)CC2 [Example 199, 4-(1,1-Dimethylethyl)-N1-{2-(1-methylethyl)-7-[3-(trifluoromethyl)pyridin-2-yl]-6,7,8,9-tetrahydro-5H-pyrimido[4,5-d]azepin-4-yl}benzene-1,3-diamine] | 1360 nM

Same assay, conditions: read-out: Rat IC50; hydrochloride salt

SMILES | IC50
FC(F)(F)c1ccc(Nc2ncnc3c2CCN(c2ncccc2C(F)(F)F)CC3)cc1 [Example 2A, (4-Trifluoromethyl-phenyl)-[7-(3-trifluoromethyl-pyridin-2-yl)-6,7,8,9-tetra-hydro-5H-pyrimido[4,5-d]azepin-4-yl]-amine hydrochloride salt] | 420 nM
